Data taken from patent publication US20200163984A1, “USE OF ISOVALERYL SPIRAMYCIN I, II AND/OR III IN MANUFACTURING MEDICAMENT FOR TREATING AND/OR PREVENTING TUMOR, AND MEDICAMENT” (SHENYANG FUYANG PHARMACEUTICAL TECHNOLOGY CO., LTD., priority 2017, published 2020).

Key:
[1] = test system: transplanted tumor of human hepatoma cell HepG-2; assay: HepG-2 transplanted tumor in nude mice; conditions: HepG-2 nude mice, 30 mg/kg
Experimental: (§1) Then cell concentration was adjusted to 1×10^7/ml with matrigel, then each nude mouse was inoculated subcutaneously with 0.2 ml of cells at its right armpit and recorded as the first day of inoculation. When the tumor grows to be greater than or equal to 100 mm^3, the mice were randomly divided into 11 groups with 6 mice in each group: a model group, a cyclophosphamide group, isovaleryl spiramycin I groups with doses of 25, 50 and 100 mg/kg, isovaleryl spiramycin II groups with doses of 25, 50 and 100 mg/kg, and isovaleryl spiramycin III groups with doses of 25, 50 and 100 mg/kg. Each group was continuously administered intragastrically for 30 days with a dose of 20 ml/kg. The mice were sacrificed the next day after drug withdrawal and the indicators were tested. The long diameter and short diameter of the tumor, and the body weight of each mouse were recorded every 3 days from drug administration to nude mouse sacrifice.
(§2) The body weight of the nude mice and the long diameter (a) and short diameter (b) of the transplanted tumor were measured every 3 days, and the tumor volume (v), relative tumor volume (RTV) and relative tumor proliferation rate (T/C) are calculated respectively according to the following formulas, wherein V=a×b^2/2; RTV=V/V0 (V0 is the tumor volume before administration, V is the tumor volume before sacrifice), and T/C (%)=treatment group RTV/model control group RTV×100%.
(§3) Each mouse was weighed and sacrificed. After the tumor was completely stripped off from the body of the mouse, the non-tumor tissues such as blood stains and fat were removed to weigh the tumor and calculate the tumor growth inhibition rate. The average tumor weight of each group of mice is used as an indicator of efficacy. Tumor growth inhibition rate (%)=(1−the average tumor weight of the treatment group/the average tumor weight of the model group)×100%.

[2] = test system: transplanted tumor of human cervical cancer cell HeLa; assay: HeLa transplanted tumor in nude mice; conditions: HeLa nude mice, 30 mg/kg
Experimental: as §1, with “HeLa cells in a logarithmic growth phase were taken and subjected to a trypan blue exclusion experiment showing that the cell viability was more than 95%, then the cells were subjected to trypsinization, centrifugation, and supernatant removal. Then” for “Then”
as §2, §3

SMILES: O=P1(N(CCCl)CCCl)NCCCO1 (stereo not shown) [Cyclophosphamide, cyclophosphamide, reference compound]
- Inhibition Rate (%) [1]: 71.04%
- Relative Tumor Proliferation Rate (T/C) [1]: 39.27%
- Relative Tumor Volume (RTV) [1]: 6.58 ± 2.18
- Tumor Weight [1]: 0.07 ± 0.38 g
- Body Weight (g) (d1) ([1]; d1): 21.89 ± 1.84 g
- Tumor Volume (mm3) (d 1) ([1]; d1): 119.66 ± 7.65 mm3
- Body Weight (g) (d30) ([1]; d30): 19.67 ± 1.49 g
- Tumor Volume (mm3) (d30) ([1]; d30): 792.56 ± 287.31 mm3
- Inhibition Rate (%) [2]: 65.74%
- Relative Tumor Proliferation Rate (T/C) [2]: 36.17%
- Relative Tumor Volume (RTV) [2]: 6.00 ± 1.35
- Tumor Weight [2]: 0.66 ± 0.13 g
- Body Weight (g) (d1) ([2]; d1): 21.10 ± 0.69 g
- Tumor Volume (mm3) (d 1) ([2]; d1): 127.17 ± 35.82 mm3
- Body Weight (g) (d30) ([2]; d30): 19.73 ± 1.22 g
- Tumor Volume (mm3) (d30) ([2]; d30): 724.89 ± 53.90 mm3
